Source: patent US20180119123A1, “CRISPR/CAS-RELATED METHODS AND COMPOSITIONS FOR TREATING HIV INFECTION AND AIDS” (EDITAS MEDICINE, INC., priority 2015, published 2018)

What was measured:
CD34^+ HSCs = assay: Hematopoietic colony forming cell (CFC) assay in Methocult medium; format: cell-based, human; conditions: Nucleofection with wild-type Cas9 and CCR5-U43 gRNA plasmid DNA + vehicle (no UM171); two weeks
Procedure: (§1) Human CD34^+ HSCs cells from mobilized peripheral blood (AllCells) were thawed into StemSpan Serum-Free Expansion Medium (SFEM™, StemCell Technologies) containing 100 ng/mL each of the following cytokines: human stem cell factor (SCF), thrombopoietin (TPO), and flt-3 ligand (FL) (all from Peprotech). Cells were grown for 3 days in a humidified incubator and 5% CO2 20% O2. […] The published use of UM171 involved prolonged exposure of HSCs to the small molecule for ex vivo expansion of HSCs. In the current experiment, HSCs were exposed to UM171 for 2 hours before and 24 hours after delivery of Cas9 and gRNA plasmid DNA. This UM171 treatment protocol was based on pilot studies performed by the inventors that indicated acute pre-treatment with UM171 before lentivirus vector mediated gene delivery improved HSC viability compared to HSCs treated with vehicle (dimethylsulfoxide, DMSO, Sigma) alone. After the 2-hour pretreatment with UM171, 1 million CD34^− HSCs were Nucleofected™ with the Amaxa™ 4D Nucleofector™ device (Lonza), Program EO100 using components of the P3 Primary Cell 4D-Nucleofector Kit™ (Lonza) according to the manufacturer's instructions. Briefly, one million cells were suspended in Nucleofector™ solution and the following amounts of plasmid DNA were added to the cell suspension: 1250 ng plasmid expressing CCR5 gRNA (CCR5-U43) from the human U6 promoter and 3750 ng plasmid expressing wild-type S. pyogenes Cas 9 transcriptionally regulated by the CMV promoter. After Nucleofection™, cells were plated into Stemspan-SFEM™ supplemented with SCF, TPO, FL and 40 nM UM171. After overnight incubation, HSCs were plated in Stemspan-SFEM™ plus cytokines without UM171. At 96 hours after Nucleofection™, CD34^+ cells were counted for by trypan blue exclusion and divided into 3 portions for the following analyses: a) flow cytometry analysis for assessment of viability by co-staining with 7-Aminoactinomycin-D (7-AAD) and allophycocyanin (APC)-conjugated Annexin-V antibody (ebioscience); b) flow cytometry analysis for maintenance of HSC phenotype (after co-staining with phycoerythrin (PE)-conjugated anti-human CD34 antibody and fluorescein isothicyanate (FITC)-conjugated anti-human CD90, both from BD Bioscience; c) hematopoietic colony forming cell (CFC) analysis by plating 1500 cells in semi-solid methylcellulose based Methocult medium (StemCell Technologies) that supports differentiation of erythroid and myeloid blood cell colonies from HSCs and serves as a surrogate assay to evaluate HSC multipotency and differentiation potential ex vivo; d) genomic DNA analysis for detection of editing at the CCR5 locus. Genomic DNA was extracted from HSCs 96 hours after Nucleofection™, and CCR5 locus-specific PCR reactions were performed.
To evaluate maintenance of HSC potency and differentiation potential, two weeks after plating CD34^+ HSCs in CFC assays, hematopoietic activity was quantified based on scoring the HSC progeny by enumerating the total number of hematopoietic colony forming units (CFU) and the frequencies of specific blood cell phenotypes, including: mixed myeloid/erythroid (Granulocyte-erythroid-monocyte macrophage, CFU-GEMM), myeloid (CFU-macrophage (M), granulocyte-macrophage (CFU-GM)) and erythroid (CFU-E) colonies. CD34^+ HSCs that were Nucleofected™ after UM171 pre-treatment maintained CFC potential compared to un-Nucleofected™ HSCs (Table 12). In contrast, CD34^+ HSCs that were Nucleofected™ without UM171 pre-treatment had reduced CFC potential (lower total CFC counts and reduced numbers of mixed-phenotype colonies (CFU-GEMM) and erythroid colonies (CFU-E)) in comparison to un-Nucleofected™ CD34^+ HSCs.
Human CD34^+ HSCs cells from mobilized peripheral blood (AllCells) were thawed into StemSpan Serum-Free Expansion Medium (SFEM, StemCell Technologies) containing 100 ng/mL each of the following cytokines: human stem cell factor (SCF), thrombopoietin (TPO), and flt-3 ligand (FL) (all from Peprotech). […]

[1] = tested on: human mobilized peripheral blood CD34^+ HSCs; assay: Viability by 7-AAD / Annexin-V flow cytometry 96 hours after Nucleofection; format: cell-based; conditions: Nucleofected with Cas9 and CCR5 gRNA plasmids after pre-treatment with UM171; 96 hours
Procedure: as §1, with “After the 2-hour pretreatment with UM171, 1 million CD34^− HSCs were Nucleofected™ with the Amaxa™ 4D Nucleofector™ device (Lonza), Program EO100 using components of the P3 Primary Cell 4D-Nucleofector Kit™ (Lonza) according to the manufacturer's instructions. Briefly, one million cells were suspended in Nucleofector™ solution and the following amounts of plasmid DNA were added to the cell suspension: 1250 ng plasmid expressing CCR5 gRNA (CCR5-U43) from the human U6 promoter and 3750 ng plasmid expressing wild-type S. pyogenes Cas 9 transcriptionally regulated by the CMV promoter. After Nucleofection™, cells were plated into Stemspan-SFEM™ supplemented with SCF, TPO, FL and 40 nM UM171. After overnight incubation, HSCs were plated in Stemspan-SFEM™ plus cytokines without UM171.” left out, “Genomic DNA was extracted from HSCs 96 hours after Nucleofection™, and CCR5 locus-specific PCR reactions were performed.” left out

[2] = tested on: human mobilized peripheral blood CD34^+ HSCs; assay: Maintenance of HSC phenotype (CD34/CD90 co-staining, flow cytometry); format: cell-based; conditions: Cas9 and CCR5 gRNA plasmids after pre-treatment with UM171; 96 hours
Procedure: Human CD34^+ HSCs cells from mobilized peripheral blood (AllCells) were thawed into StemSpan Serum-Free Expansion Medium (SFEM™, StemCell Technologies) containing 100 ng/mL each of the following cytokines: human stem cell factor (SCF), thrombopoietin (TPO), and flt-3 ligand (FL) (all from Peprotech). Cells were grown for 3 days in a humidified incubator and 5% CO2 20% O2. […] The published use of UM171 involved prolonged exposure of HSCs to the small molecule for ex vivo expansion of HSCs. In the current experiment, HSCs were exposed to UM171 for 2 hours before and 24 hours after delivery of Cas9 and gRNA plasmid DNA. This UM171 treatment protocol was based on pilot studies performed by the inventors that indicated acute pre-treatment with UM171 before lentivirus vector mediated gene delivery improved HSC viability compared to HSCs treated with vehicle (dimethylsulfoxide, DMSO, Sigma) alone. After the 2-hour pretreatment with UM171, 1 million […] HSCs were Nucleofected™ with the Amaxa™ 4D Nucleofector™ device (Lonza), Program EO100 using components of the P3 Primary Cell 4D-Nucleofector Kit™ (Lonza) according to the manufacturer's instructions. […]

[3] = tested on: human mobilized peripheral blood CD34^+ HSCs; assay: Fold change in CD34+ cell number (trypan blue count) 96 hours after Nucleofection; format: cell-based; conditions: Nucleofection with wild type Cas9 and CCR5-U43 gRNA plasmid DNA + vehicle treatment (no UM171)
Procedure: as §1, with “After the 2-hour pretreatment with UM171, 1 million CD34^− HSCs were Nucleofected™ with the Amaxa™ 4D Nucleofector™ device (Lonza), Program EO100 using components of the P3 Primary Cell 4D-Nucleofector Kit™ (Lonza) according to the manufacturer's instructions. Briefly, one million cells were suspended in Nucleofector™ solution and the following amounts of plasmid DNA were added to the cell suspension: 1250 ng plasmid expressing CCR5 gRNA (CCR5-U43) from the human U6 promoter and 3750 ng plasmid expressing wild-type S. pyogenes Cas 9 transcriptionally regulated by the CMV promoter. After Nucleofection™, cells were plated into Stemspan-SFEM™ supplemented with SCF, TPO, FL and 40 nM UM171. After overnight incubation, HSCs were plated in Stemspan-SFEM™ plus cytokines without UM171.” left out, “Genomic DNA was extracted from HSCs 96 hours after Nucleofection™, and CCR5 locus-specific PCR reactions were performed.” left out

## GCUGCCGCCCAGUGGGACUU (chemistry not given here) [CCR5-U43, S. pyogenes gRNA targeting CCR5; delivered as U6-promoter plasmid with Cas9 plasmid]
CD34^+ HSCs
  Number of colony forming units: E: 18 colony forming units per 1500 CD34^+ HSCs plated
  Number of colony forming units: G: 22 colony forming units per 1500 CD34^+ HSCs plated
  Number of colony forming units: GEMM: 1 colony forming units per 1500 CD34^+ HSCs plated
  Number of colony forming units: GM: 1 colony forming units per 1500 CD34^+ HSCs plated
  Number of colony forming units: M: 6 colony forming units per 1500 CD34^+ HSCs plated
  Number of colony forming units: Total: 28 colony forming units per 1500 CD34^+ HSCs plated
[1]
  viability (7-AAD^− AnnexinV^-): > 93%
[2]
  co-expression of CD34 and CD90: maintained co-expression of CD34 and CD90
[3]
  Fold change in cell number of CD34^+ cells (96 hours vs. time 0 cell number): 0.6
